Source: US11214803B2, “Modulators of YAP1 expression” (Ionis Pharmaceuticals, Inc., priority 2019, dated 2022)
Strand notation (5' to 3'): a small letter for the sugar, then the base; units joined by * are phosphorothioate-linked, units joined directly phosphodiester-linked; [ ] holds rarer units or linkages, { } end groups; capitals alone tell only the bases. e = 2'-O-(2-methoxyethyl) (MOE); k = constrained ethyl (cEt); [5mC] = 5-methylcytosine; d = 2'-deoxy (DNA); m = 2'-O-methyl

Test system: Yap1 mRNA
Assay: Dose-dependent inhibition of human Yap1 in SNU-449 cells (Example 9, RTS36584)
Format: cell-based
Conditions: free uptake; for % UTC (Yap1 mRNA): approximately 48 hours; for IC50: linear regression on a log/linear plot
Experimental: Modified oligonucleotides described in the studies above were tested at various doses in SNU-449 cells. Cultured SNU-449 cells at a density of 10,000 cells per well were treated using free uptake with modified oligonucleotides diluted to concentrations described in the tables below. After approximately 48 hours, Yap1 mRNA levels were measured as previously described using the Human Yap1 primer-probe set RTS36584. Yap1 mRNA levels were normalized to total RNA content, as measured by RIBOGREEN®. Results are presented in the tables below as percent control of the amount of Yap1 mRNA relative to untreated control cells (% UTC). IC50s were calculated using a linear regression on a log/linear plot of the data in excel.

| Substance | % UTC (Yap1 mRNA) (31.3 nM) | % UTC (Yap1 mRNA) (125.0 nM) | % UTC (Yap1 mRNA) (500.0 nM) | % UTC (Yap1 mRNA) (2000.00 nM) | IC50 |
| --- | --- | --- | --- | --- | --- |
| 1198799 (k[5mC]*eT*kA*dA*dG*dT*dA*dA*dG*dG*dT*dT*eT*e[5mC]*k[5mC]*k[5mC]; antisense) [compound 1198799] | 62 % UTC | 35 % UTC | 13 % UTC | 4 % UTC | 0.1 µM |
| 1198875 (kA*kA*dA*dG*dT*dG*dT*dA*dT*dG*dT*k[5mC]*eA*kG*eA*kA; antisense) [compound 1198875] | 61 % UTC | 23 % UTC | 4 % UTC | 1 % UTC | 0.04 µM |
| 1198286 (kA*kA*kT*dT*dG*dT*d[5mC]*dT*d[5mC]*dA*dT*dG*k[5mC]*e[5mC]*kT*eT; antisense) [compound 1198286] | 64 % UTC | 45 % UTC | 22 % UTC | 8 % UTC | 0.1 µM |
| 1198290 (kT*kG*kG*dA*dA*dA*dT*dT*dG*dT*d[5mC]*dT*k[5mC]*eA*kT*eG; antisense) [compound 1198290] | 60 % UTC | 39 % UTC | 20 % UTC | 10 % UTC | 0.1 µM |
| 1200784 (kT*kG*kT*d[5mC]*dT*mC*dA*dT*dG*d[5mC]*d[5mC]*dT*dT*kA*kT*kA; antisense) [compound 1200784] | 70 % UTC | 51 % UTC | 26 % UTC | 12 % UTC | 0.1 µM |
| 1198569 (CACTTTTACATTAGGA; modified gapmer, chemistry not fully specified) [compound 1198569] | 71 % UTC | 45 % UTC | 22 % UTC | 14 % UTC | 0.1 µM |
| 1198457 (kA*kT*dT*dG*dT*d[5mC]*dT*d[5mC]*dA*dT*dG*e[5mC]*k[5mC]*eT*kT*eA; antisense) [compound 1198457] | 82 % UTC | 56 % UTC | 31 % UTC | 12 % UTC | 0.2 µM |
| 1198578 (GCTTTGGAAGATCTGA; modified gapmer, chemistry not fully specified) [compound 1198578] | 73 % UTC | 45 % UTC | 25 % UTC | 12 % UTC | 0.1 µM |
| 1009325 (kA*kG*kA*dG*dT*dA*dT*dG*dT*dG*dG*d[5mC]*dA*kA*kT*kA; antisense) [compound 1009325] | 59 % UTC | 36 % UTC | 16 % UTC | 4 % UTC | 0.1 µM |
| 1198398 (G_{ks}^{m}C_{ds}A_{ds}C_{ds}T_{ds}T_{ds}T_{ds}T_{ds}A_{ds}^{m}C_{ds}A_{ds}T_{ks}T_{es}A_{ks}G_{es}G_{k}; cEt, 2'-MOE, 5-methylcytosine, phosphorothioate modifications, as printed in the source, key not given here) [compound 1198398] | 73 % UTC | 55 % UTC | 33 % UTC | 18 % UTC | 0.2 µM |
| 1198528 (kT*kA*dA*dA*dG*dT*dG*dT*dA*dT*dG*eT*k[5mC]*eA*kG*eA; antisense) [compound 1198528] | 87 % UTC | 54 % UTC | 30 % UTC | 11 % UTC | 0.2 µM |
| 1198409 (kA*dG*dT*dG*d[5mC]*dT*dT*dT*dG*dG*dA*kA*eG*kA*eT*k[5mC]; antisense) [compound 1198409] | 100 % UTC | 68 % UTC | 45 % UTC | 27 % UTC | 0.4 µM |
| 1197271 (kT*kT*kT*dA*mA*dA*dG*dT*dG*dT*dA*dT*dG*kT*k[5mC]*kA; antisense) [compound 1197271] | 70 % UTC | 47 % UTC | 19 % UTC | 8 % UTC | 0.1 µM |
| 1198596 (k[5mC]*kT*k[5mC]*dT*dT*dA*dT*dA*dT*dG*dG*dT*kT*kT*kT*eG; antisense) [compound 1198596] | 73 % UTC | 40 % UTC | 14 % UTC | 4 % UTC | 0.1 µM |
| 1198529 (kT*kT*dA*dA*dA*dG*dT*dG*dT*dA*dT*eG*kT*e[5mC]*kA*eG; antisense) [compound 1198529] | 86 % UTC | 69 % UTC | 37 % UTC | 16 % UTC | 0.3 µM |
| 1198550 (kA*kT*kA*dT*dG*dG*dA*dA*dA*dT*dT*dG*kT*k[5mC]*kT*e[5mC]) [compound 1198550] | 73 % UTC | 56 % UTC | 30 % UTC | 13 % UTC | 0.2 µM |
| 1198638 (kA*kG*dA*dG*dT*dA*dT*dG*dT*dG*dG*d[5mC]*kA*eA*kT*eA; antisense) [compound 1198638] | 70 % UTC | 42 % UTC | 13 % UTC | 4 % UTC | 0.1 µM |
| 1198857 (kT*k[5mC]*dT*dT*dA*dT*dA*dT*dG*dG*dT*kT*eT*kT*eG*kT) [compound 1198857] | 78 % UTC | 44 % UTC | 13 % UTC | 4 % UTC | 0.1 µM |
| 1198805 (kA*kT*dT*dG*dT*d[5mC]*dT*d[5mC]*dA*dT*dG*k[5mC]*e[5mC]*kT*eT*kA; antisense) [compound 1198805] | 61 % UTC | 42 % UTC | 20 % UTC | 7 % UTC | 0.1 µM |
| 1198499 (kT*kT*dT*dA*dG*dG*dA*dT*dG*d[5mC]*dA*eT*kG*eG*kT*eT) [compound 1198499] | 89 % UTC | 42 % UTC | 30 % UTC | 12 % UTC | 0.2 µM |
| 1198504 (kT*k[5mC]*dA*dG*dA*dT*dT*dT*dA*dG*dG*eA*kT*eG*k[5mC]*eA; antisense) [compound 1198504] | 77 % UTC | 46 % UTC | 27 % UTC | 24 % UTC | 0.1 µM |
| 1198365 (k[5mC]*kT*kA*dA*dG*dT*dA*dA*dG*dG*dT*dT*kT*e[5mC]*k[5mC]*e[5mC]; antisense) [compound 1198365] | 59 % UTC | 38 % UTC | 15 % UTC | 5 % UTC | 0.1 µM |
| 1198525 (kA*kG*dT*dG*dT*dA*dT*dG*dT*d[5mC]*dA*eG*kA*eA*kG*eA) [compound 1198525] | 62 % UTC | 26 % UTC | 8 % UTC | 1 % UTC | 0.04 µM |
| 1198746 (kG*e[5mC]*kA*d[5mC]*dT*dT*dT*dT*dA*d[5mC]*dA*dT*eT*eA*kG*kG) [compound 1198746] | 49 % UTC | 24 % UTC | 9 % UTC | 3 % UTC | < 0.03 µM |
| 1009326 (kT*kA*kT*dT*dA*dG*dA*dG*dT*dA*dT*dG*dT*kG*kG*k[5mC]; antisense) [compound 1009326] | 59 % UTC | 35 % UTC | 14 % UTC | 4 % UTC | 0.05 µM |
| 1198900 (kA*kG*dA*dG*dT*dA*dT*dG*dT*dG*dG*k[5mC]*dA*kA*dT*kA; antisense) [compound 1198900] | 69 % UTC | 36 % UTC | 18 % UTC | 7 % UTC | 0.1 µM |
| 1198347 (kG*kT*kA*dA*dT*dA*dT*dT*dG*d[5mC]*dA*dA*kT*e[5mC]*kT*eG) [compound 1198347] | 67 % UTC | 54 % UTC | 24 % UTC | 8 % UTC | 0.1 µM |
| 1200861 (kT*kT*kA*dA*dA*mG*dT*dG*dT*dA*dT*dG*dT*k[5mC]*kA*kG; antisense) [compound 1200861] | 74 % UTC | 43 % UTC | 17 % UTC | 4 % UTC | 0.1 µM |
| 1198289 (kG*kG*kA*dA*dA*dT*dT*dG*dT*d[5mC]*dT*d[5mC]*kA*eT*kG*e[5mC]; antisense) [compound 1198289] | 72 % UTC | 41 % UTC | 18 % UTC | 9 % UTC | 0.1 µM |
| 1198460 (kG*kA*dA*dA*dT*dT*dG*dT*d[5mC]*dT*d[5mC]*eA*kT*eG*k[5mC]*e[5mC]; antisense) [compound 1198460] | 60 % UTC | 49 % UTC | 28 % UTC | 11 % UTC | 0.1 µM |
